Results as given in ChEMBL document CHEMBL2062504, “Diterpenoid alkaloids from the lateral root of Aconitum carmichaelii” (J Nat Prod, 2012).
Active and inactive are the calls of the source.

How the values were obtained:
[1] = system: Peritoneal macrophage cell; experiment: Antiinflammatory activity in mouse peritoneal macrophages assessed as inhibition of nitric oxide production at 10 uM; format: functional, cell-based
Bel-7402 = experiment: Cytotoxicity against human Bel7402 cells at 10 uM after 96 hrs by MTT assay; format: functional, cell-based
BGC-823 = experiment: Cytotoxicity against human BGC823 cells at 10 uM after 96 hrs by MTT assay; format: functional, cell-based
KETR3 = experiment: Cytotoxicity against human Ketr3 cells at 10 uM after 96 hrs by MTT assay; format: functional, cell-based
HCT-8 = experiment: Cytotoxicity against human HCT8 cells at 10 uM after 96 hrs by MTT assay; format: functional, cell-based
Liver microsomes = experiment: Antioxidant activity in rat liver microsome assessed as inhibition of FeSO4-induced lipid peroxidation at 10 uM incubated for 15 mins prior to FeSO4-challenge measured after 15 mins by modified thiobarbituric acid method; format: functional
MCF7 = experiment: Cytotoxicity against human MCF7 cells at 10 uM after 96 hrs by MTT assay; format: functional, cell-based
A549 = experiment: Cytotoxicity against human A549 cells at 10 uM after 96 hrs by MTT assay; format: functional, cell-based
WB-F344 = experiment: Hepatoprotective activity against DL-galactosamine-induced cell death in rat WB-F344 cells at 10 uM incubated for 1 hr prior to DL-galactosamine-challenge measured after 24 hrs by MTT assay; format: functional, cell-based

COC[C@@]12CC[C@H](OC)[C@]34C([C@H]([C@H](OC)[C@H]13)[C@]1(OC(C)=O)[C@H]3[C@@H](OC(=O)c5ccccc5)[C@](O)(C[C@]34O)[C@@H](OC)[C@@H]1O)N(C)C2
inactive: inhibition [1] | Activity (Bel-7402) | Activity (BGC-823) | Activity (KETR3) | Activity (HCT-8) | inhibition (Liver microsomes) | Activity (MCF7) | Activity (A549) | Activity (WB-F344)

CCN1C[C@]2(COC)[C@H](O)C[C@H](OC)[C@]34C1[C@H]([C@H](OC)[C@H]23)[C@]1(OC)[C@H]2[C@@H](OC(=O)c3ccccc3)[C@](O)(C[C@]24O)[C@@H](OC)[C@@H]1O
inactive: inhibition [1] | Activity (Bel-7402) | Activity (BGC-823) | Activity (KETR3) | Activity (HCT-8) | inhibition (Liver microsomes) | Activity (MCF7) | Activity (A549) | Activity (WB-F344)

C=C1C[C@]23C4[C@@H](OC(=O)[C@@H](C)CC)[C@H]1[C@@H](O)[C@H]2[C@]12C[C@@H](OC(=O)CC)C[C@]5(C)[C@H]1[C@H]([C@@H]3O)[N+](C)([C@H]42)[C@H]5O
inactive: inhibition [1] | Activity (Bel-7402) | Activity (BGC-823) | Activity (KETR3) | Activity (HCT-8) | inhibition (Liver microsomes) | Activity (MCF7) | Activity (A549) | Activity (WB-F344)

C=C1C[C@]23C[C@H]4[C@@H]5[C@@]6(C)C[C@H](OC(=O)c7ccccc7)[C@@H](OC(C)=O)[C@]57C(C2[C@@H](O)[C@H]1[C@@H](OC(C)=O)[C@H]37)N4[C@H]6O
inactive: inhibition [1] | Activity (Bel-7402) | Activity (BGC-823) | Activity (KETR3) | Activity (HCT-8) | inhibition (Liver microsomes) | Activity (MCF7) | Activity (A549) | Activity (WB-F344)

CCN1C[C@]2(COC)CC[C@H](OC)[C@]34C1[C@H]([C@H](OC)[C@H]23)[C@]1(OC)[C@H]2[C@@H](OC(=O)c3ccccc3)[C@](O)(C[C@H]24)[C@@H](OC)[C@@H]1O (single isomer, unassigned; (-))
inactive: inhibition [1] | Activity (Bel-7402) | Activity (BGC-823) | Activity (KETR3) | Activity (HCT-8) | inhibition (Liver microsomes) | Activity (MCF7) | Activity (A549) | Activity (WB-F344)

C=C1C[C@]23C4[C@@H](OC(=O)[C@@H](C)CC)[C@H]1[C@@H](O)[C@H]2[C@]12C[C@@H](OC(=O)C(C)C)C[C@]5(C)[C@H]1[C@H]([C@@H]3O)[N+](C)([C@H]42)[C@H]5O
inactive: inhibition [1] | Activity (Bel-7402) | Activity (BGC-823) | Activity (KETR3) | Activity (HCT-8) | inhibition (Liver microsomes) | Activity (MCF7) | Activity (A549) | Activity (WB-F344)

CCN1C[C@]2(COC)CC[C@H](OC)[C@]34C1[C@H]([C@H](OC)[C@H]23)[C@]1(OC(C)=O)[C@H]2[C@@H](OC(=O)c3ccccc3)[C@H](C[C@H]24)[C@@H](OC)[C@@H]1O
inactive: inhibition [1] | Activity (Bel-7402) | Activity (BGC-823) | Activity (KETR3) | Activity (HCT-8) | inhibition (Liver microsomes) | Activity (MCF7) | Activity (A549) | Activity (WB-F344)

CCN1C[C@]2(COC)CC[C@H](OC)[C@]34C1[C@H](C[C@H]23)[C@]1(O)[C@H]2[C@@H](OC(=O)c3ccccc3)[C@H](C[C@H]24)[C@@H](OC)[C@@H]1O
inactive: inhibition [1] | Activity (Bel-7402) | Activity (BGC-823) | Activity (KETR3) | Activity (HCT-8) | inhibition (Liver microsomes) | Activity (MCF7) | Activity (A549) | Activity (WB-F344)

CCN1C[C@]2(COC)CC[C@H](OC)[C@]34C1[C@H](C[C@H]23)[C@]1(O)[C@H]2[C@@H](OC(=O)c3ccccc3)[C@](O)(C[C@H]24)[C@@H](OC)[C@@H]1O
inactive: inhibition [1] | Activity (Bel-7402) | Activity (BGC-823) | Activity (KETR3) | Activity (HCT-8) | inhibition (Liver microsomes) | Activity (MCF7) | Activity (A549) | Activity (WB-F344)

CCN1C[C@]2(COC)CC[C@H](OC)[C@]34C1[C@H]([C@H](OC)[C@H]23)[C@]1(OC(C)=O)[C@H]2[C@@H](OC(=O)c3ccccc3)[C@](O)(C[C@H]24)[C@@H](OC)[C@@H]1O
inactive: inhibition [1] | Activity (Bel-7402) | Activity (BGC-823) | Activity (KETR3) | Activity (HCT-8) | inhibition (Liver microsomes) | Activity (MCF7) | Activity (A549) | Activity (WB-F344)

COC[C@]12CN(C)C3[C@@H]4[C@H](OC)[C@H]1[C@@]3([C@@H](OC)C[C@H]2O)[C@]1(O)C[C@@]2(O)[C@H](OC(=O)c3ccccc3)[C@@H]1[C@]4(O)[C@@H](O)[C@H]2OC
inactive: inhibition [1] | Activity (Bel-7402) | Activity (BGC-823) | Activity (KETR3) | Activity (HCT-8) | inhibition (Liver microsomes) | Activity (MCF7) | Activity (A549) | Activity (WB-F344)

COC[C@]12CN(C)C3[C@@H]4[C@H](OC)[C@H]1[C@@]3([C@@H](OC)C[C@H]2O)[C@@H]1C[C@@]2(O)[C@H](OC(=O)c3ccccc3)[C@@H]1[C@]4(O)[C@@H](O)[C@@H]2OC
inactive: inhibition [1] | Activity (Bel-7402) | Activity (BGC-823) | Activity (KETR3) | Activity (HCT-8) | inhibition (Liver microsomes) | Activity (MCF7) | Activity (A549) | Activity (WB-F344)

COC[C@]12CN(C)C3[C@@H]4[C@H](OC)[C@H]1[C@@]3([C@@H](OC)C[C@H]2O)[C@]1(O)C[C@@]2(O)[C@H](OC(=O)c3ccccc3)[C@@H]1[C@]4(O)[C@@H](O)[C@@H]2OC
inactive: inhibition [1] | Activity (Bel-7402) | Activity (BGC-823) | Activity (KETR3) | Activity (HCT-8) | inhibition (Liver microsomes) | Activity (MCF7) | Activity (A549) | Activity (WB-F344)

CCN1C[C@]2(COC)CC[C@H](O)[C@]34C1[C@H]([C@H](OC)[C@H]23)[C@]1(O)[C@H]2[C@@H](OC(=O)c3ccccc3)[C@H](C[C@H]24)[C@@H](OC)[C@@H]1O
inactive: inhibition [1] | Activity (Bel-7402) | Activity (BGC-823) | Activity (KETR3) | Activity (HCT-8) | inhibition (Liver microsomes) | Activity (MCF7) | Activity (A549) | Activity (WB-F344)

COC[C@]12CN(C)C3[C@@H]4[C@H](OC)[C@H]1[C@@]3([C@@H](OC)C[C@H]2O)[C@@H]1C[C@@]2(O)[C@H](OC(=O)c3ccccc3)[C@@H]1[C@]4(O)[C@@H](OC(C)=O)[C@@H]2OC
inactive: inhibition [1] | Activity (Bel-7402) | Activity (BGC-823) | Activity (KETR3) | Activity (HCT-8) | inhibition (Liver microsomes) | Activity (MCF7) | Activity (A549) | Activity (WB-F344)

CCN1C[C@]2(COC)CC[C@H](OC)[C@]34C1[C@H]([C@H](O)[C@H]23)[C@]1(O)[C@H]2[C@@H](OC(=O)c3ccccc3)[C@H](C[C@H]24)[C@@H](OC)[C@@H]1O
inactive: inhibition [1] | Activity (Bel-7402) | Activity (BGC-823) | Activity (KETR3) | Activity (HCT-8) | inhibition (Liver microsomes) | Activity (MCF7) | Activity (A549) | Activity (WB-F344)

COC[C@]12CN(C)C3[C@@H]4[C@H](OC)[C@H]1[C@@]3([C@@H](OC)C[C@H]2OC(C)=O)[C@]1(O)C[C@@]2(O)[C@H](OC(=O)c3ccccc3)[C@@H]1[C@]4(OC)[C@@H](O)[C@@H]2OC
inactive: inhibition [1] | Activity (Bel-7402) | Activity (BGC-823) | Activity (KETR3) | Activity (HCT-8) | inhibition (Liver microsomes) | Activity (MCF7) | Activity (A549) | Activity (WB-F344)

COC[C@]12CN(C)C3[C@@H]4[C@H](OC)[C@H]1[C@@]3([C@@H](OC)C[C@H]2O)[C@]1(O)C[C@@]2(O)[C@H](OC(=O)c3ccccc3)[C@@H]1[C@]4(OC)[C@@H](O)[C@@H]2OC (stereo in doubt; 7)
inactive: inhibition [1] | Activity (Bel-7402) | Activity (BGC-823) | Activity (KETR3) | Activity (HCT-8) | inhibition (Liver microsomes) | Activity (MCF7) | Activity (A549) | Activity (WB-F344)

CCN1C[C@]2(COC)CC[C@H](O)[C@]34C1[C@H]([C@H](OC)[C@H]23)[C@]1(O)[C@H]2[C@@H](OC(=O)/C=C/c3ccccc3)[C@H](C[C@H]24)[C@@H](OC)[C@@H]1O
inactive: inhibition [1] | Activity (Bel-7402) | Activity (BGC-823) | Activity (KETR3) | Activity (HCT-8) | inhibition (Liver microsomes) | Activity (MCF7) | Activity (A549) | Activity (WB-F344)
